Entries after “also recorded” stand apart in the source; their conditions may differ. Bridges are numbered along the chain shown (N, C = ends). Roman numbers before positions name the chains, in order. Where no end group is shown, it is not given here.
Columns and labels:
FGFR/KL-complex = target: T1, FGFR/KL-complex (Homo sapiens, UniProt Q9UEF7); test: FGF23-antagonism measured by relative p-Erk levels in 293/KL cells; assay type: cell-based; details: for IC50: p-Erk
T1 construct: expressed in transfected cells; host or cells: 293T HEK cells overexpressing human KL (293/KL)
T1 sequence (Q9UEF7 34-1012): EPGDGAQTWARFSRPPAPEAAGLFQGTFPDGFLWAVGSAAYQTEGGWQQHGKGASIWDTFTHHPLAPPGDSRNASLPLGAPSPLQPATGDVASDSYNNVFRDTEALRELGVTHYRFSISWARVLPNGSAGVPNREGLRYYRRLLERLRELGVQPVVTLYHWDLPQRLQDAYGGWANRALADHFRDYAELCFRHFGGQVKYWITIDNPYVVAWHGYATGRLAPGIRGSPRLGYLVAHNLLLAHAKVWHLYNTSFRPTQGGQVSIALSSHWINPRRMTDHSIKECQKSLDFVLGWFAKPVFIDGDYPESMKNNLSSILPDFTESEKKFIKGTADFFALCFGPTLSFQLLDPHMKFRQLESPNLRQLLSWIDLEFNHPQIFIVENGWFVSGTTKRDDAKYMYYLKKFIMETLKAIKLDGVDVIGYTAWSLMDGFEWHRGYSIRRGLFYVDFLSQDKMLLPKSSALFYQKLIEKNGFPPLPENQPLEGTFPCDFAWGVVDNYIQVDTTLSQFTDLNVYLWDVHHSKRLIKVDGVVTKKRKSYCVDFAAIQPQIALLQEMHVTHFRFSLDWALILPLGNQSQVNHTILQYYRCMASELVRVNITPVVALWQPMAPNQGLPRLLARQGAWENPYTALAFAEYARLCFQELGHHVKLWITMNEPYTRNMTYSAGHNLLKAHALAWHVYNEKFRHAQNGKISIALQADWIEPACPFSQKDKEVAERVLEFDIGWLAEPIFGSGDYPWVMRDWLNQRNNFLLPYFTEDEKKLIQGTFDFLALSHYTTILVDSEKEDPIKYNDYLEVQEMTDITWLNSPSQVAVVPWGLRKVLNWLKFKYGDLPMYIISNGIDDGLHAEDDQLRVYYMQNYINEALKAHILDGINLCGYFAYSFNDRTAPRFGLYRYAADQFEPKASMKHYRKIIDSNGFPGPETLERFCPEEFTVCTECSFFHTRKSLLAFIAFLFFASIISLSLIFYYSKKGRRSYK
Description: FIGS. 1A-1F Structure activity analysis among the two KL-interacting peptides C26 and C28. FIG. 1A provides a schematic representation of FGF23 showing the Amino terminal FGF23 core (amino acids 25-179) and the C-terminal portion that comprises two Klotho interaction sites “C26” (amino acids 180-205) and “C28” (amino acids 212-239); FIGS. 1B-1F are graphs presenting FGF23-antagonism measured by the relative p-Erk levels in 293/KL cells with increasing doses of the peptide antagonist. (FIG. 1B) compares C26 and C28; FIG. 1C is a graph showing the effect of the substitutions from C28 sequence into the C26 sequence on the peptide activity, comparing peptides C26(●), 1(▪), 2( ? ), 3(▴), and 4(○); FIG. 1D is a graph showing the effect of the substitutions from C28 sequence in the C26 sequence on the peptide activity, C28(●), 5(▪), 6( ? ), and 7(▴); FIGS. 1E & 1F are graphs showing the activity of shortened FGF23 C-terminal peptide antagonist in vitro. For FIG. 1E peptides C26(●), 8(▪), 9( ? ) are compared; For FIG. 1F peptides 6(●), 10(▪), 11( ? ), and 12(▴).
FIGS. 4A & 4B provide data relating to mutation of the C-terminal FGF23 peptides to assess their KL-interaction site by study of FGF23-activity antagonism in 293/KL cells. FGF23 C-terminal peptides tested for their ability to block FGF23-signaling measured by relative p-Erk levels are shown in FIG. 4A for peptides C26 (●), C28(▪), C26A1(T ? , FGF23^180-205, A^188), C28A2(▴, FGF23^212-239, A^222); and in FIG. 4B for peptides C72(●, FGF23^180-251), C72A1(▪, FGF23^180-251, A^188), C72 A2 ( ? , FGF23^180-251, A^222), C72A1A2(▴, FGF23^180-251, A^188,222). […]

FGFR/KL complex = test: FGF23-signaling activity (stimulation of Erk-phosphorylation) in 293/KL cells; assay type: cell-based, human
Procedure: (§1) FIGS. 5A-5D provide data relating to the activities of FGF23-analogs containing one or two active KL-interaction sites by in vitro and in vivo methods. […] FIGS. 5B-5D are scatter plots presenting an in vivo assessment of FGF23-activity in mice. WT mice were treated with 0.5 mg/kg body weight with either FGF23, FGF23 A^188, FGF23 A^222, FGF23 A^188,222, or vehicle, n=5 or 10/group, and post 3-hours the gene expression changes were studied by quantitative real time PCR for target genes, FIG. 5B represents measurement of Cyp24a1, FIG. 5C represents measurement of Cyp27b1, and FIG. 5D represents measurement of Egr1. The data is presented as a scatter plot where each dot represents one animal, mean ±SEM. One-way ANOVA with Tukey's comparison was employed for statistical analyses where***P<0.001 vs. vehicle; #P<0.05, ##P<0.01, ###P<0.001 vs FGF23; and $$$P<0.001 vs FGF23 A^188,222 was calculated.
Whether FGF23-based agonism can employ each of the two KL-interaction sites as witnessed in the C72 peptide antagonist was studied. To do so, a selective mutation at position Asp188 or Asp222 was made in the native FGF23. […] This is consistent with prior reports where C-terminal sequence deletion after residue 205 position had no apparent effect on cellular signaling (FIG. 5A, Table 3). […] Asp188 residue is purported to be singularly essential for KL-binding and FGF23 activity, and its importance was substantiated by the lack of antagonism when the C26 peptide was similarly mutated from Asp to Ala (FIG. 4A). […] To confirm that these observations were not resulting from unexpected changes in higher order structure that was not apparent in biosynthesis, purification, or formulation of the mutant proteins their biophysical integrity were directly assessed by thermal denaturation.
The N-terminal domain of the endocrine FGFs primarily determines the FGFR-activation while the C-terminal sequence guides the co-receptor specificity with a Klotho co-receptor, KL or KLB. The receptor complex specificity among the endocrine FGF-proteins can be modulated by altering their C-terminal domains. Consequently, two FGF21-23 chimeric protein analogs were prepared containing the FGF21 N-terminal core with its C-terminal KLB-binding peptide replaced with an FGF23 C-terminal peptide sequence constituted by C72 (FGF21-23 C72) or C26 (FGF21-23 C26) (Table 3).

[1] = tested on: FGFR/KL-downstream targets Cyp24a1, Cyp27b1 and Egr1; test: Mouse kidney gene expression after FGF23 protein analogs (quantitative real time PCR); assay type: in vivo; details: WT mice, 0.5 mg/kg, 3 hours
Procedure: as §1
To test whether C28 as the second KL-interaction site can promote FGF23 in vivo activity, the single site FGF23-analogs were assessed for their ability to alter kidney gene expression in normal mice. Four proteins (FGF23, FGF23 A188, FGF23 A222 or FGF23 A188, 222 analogs) were each dosed to mice 0.5 mg/kg and 3 hours later quantitative real time PCR was employed to assess kidney mRNA expression of the FGFR/KL-downstream targets Cyp24a1, Cyp27b1 and early growth response protein 1 (Egr1). […] This is not surprising since the optimal treatment time for Egrl modulation is as early as 1 hour for FGF-signaling measurements. The magnitude in upregulation of gene expression for Cyp24a1 was the highest, with twenty-fold induction by native FGF23 treatment (FIG. 5B). […] Similarly, the Egrl induction is reduced for FGF23 A188 and FGF23 A222 analogs as compared to native FGF23 (P<0.05, FIG. 5D), but no difference is observed among the analogs and FGF23 for Cyp27b1 (FIG. 5C).

[2] = Table 2, block of FGF23-signaling
[3] = Table 1, block of FGF23-signaling

Molecule: ASDPLGVVRPRARM [Peptide 11]
- IC50 (FGFR/KL-complex; [2]): 17.1 ± 0.6 nM

Molecule: DPLGVVRPRARM [Peptide 12]
- IC50 (FGFR/KL-complex; [2]): 70.9 ± 29.5 nM

Molecule: DPLNVLKPRARM [Peptide 9]
- IC50 (FGFR/KL-complex; [2]): 542 ± 282 nM

Molecule: ERDPLNVLKPRARM [Peptide 8]
- IC50 (FGFR/KL-complex; [2]): 97 ± 30.3 nM

Molecule: I: SAEDDSERDPLNVLKPRARMTPAPASGPEGC / II: SAEDDSERDPLNVLKPRARMTPAPASGPEGC (disulfide I:31-II:31) [Peptide 17]
- enhancement of FGF23-antagonistic potency of dimer compared to corresponding monomers (FGFR/KL-complex; fold): approximately twenty to fifty-fold

Molecule: I: SAEDNSPMASAPLGVVRPRARMTHAGGTGPEGC / II: SAEDNSPMASDPLGVVRPRARMTHAGGTGPEGC (disulfide I:33-II:33) [Peptide 22]
- FGF23-antagonist activity (in words) (FGFR/KL-complex): reduced in potency relative to C72 and peptide 20

Molecule: I: SAEDNSPMASDPLGVVRGGRVNTHAGGTGPEGC / II: SAEDDSERDPLNVLKPRARMTPAPASGPEGC (disulfide I:33-II:31) [Peptide 19]
- FGF23-antagonist activity (in words) (FGFR/KL-complex): indistinguishable from the activity of the two homodimers
- enhancement of FGF23-antagonistic potency of dimer compared to corresponding monomers (FGFR/KL-complex; fold): approximately twenty to fifty-fold

Molecule: I: SAEDNSPMASDPLGVVRGGRVNTHAGGTGPEGC / II: SAEDNSPMASDPLGVVRGGRVNTHAGGTGPEGC (disulfide I:33-II:33) [Peptide 18]
- enhancement of FGF23-antagonistic potency of dimer compared to corresponding monomers (FGFR/KL-complex; fold): approximately twenty to fifty-fold

Molecule: I: SAEDNSPMASDPLGVVRPRARMTHAGGTGPEGC / II: SAEDNSPMASDPLGVVRPRARMTHAGGTGPEGC (disulfide I:33-II:33) [Peptide 20]
- FGF23-antagonist activity (in words) (FGFR/KL-complex): equal to that of C72; also recorded: no greater potency than C72

Molecule: PMASDPLGVVRPRARM [Peptide 10]
- IC50 (FGFR/KL-complex; [2]): 3.8 ± 0.9 nM

Molecule: SAEDDSERAPLNVLKPRARMTPAPASCSQELPSAEDNSPMASAPLGVVRGGRVNTHAGGTGPEGCRPFAKFI [C72 A1A2, FGF23^180-251, A^188,222]
- FGF23-antagonist activity (in words) (FGFR/KL-complex): complete loss of activity

Molecule: SAEDDSERAPLNVLKPRARMTPAPASCSQELPSAEDNSPMASDPLGVVRGGRVNTHAGGTGPEGCRPFAKFI [C72 A1, FGF23^180-251, A^188]
- IC50 (FGFR/KL-complex; [3]): 24.5 ± 11.5 nM
- reduction in inhibitory potency relative to C72 (FGFR/KL-complex; fold): more than twenty-fold

Molecule: SAEDDSERDPLNVLKPRARMTPAPASCSQELPSAEDNSPMASAPLGVVRGGRVNTHAGGTGPEGCRPFAKFI [C72 A2, FGF23^180-251, A^222]
- IC50 (FGFR/KL-complex; [3]): 33.1 ± 15.8 nM
- reduction in inhibitory potency relative to C72 (FGFR/KL-complex; fold): more than twenty-fold

Molecule: SAEDNSPMASDPLGVVRGGRVNTHAGGTGPEGCRPFAKFI [C40]
- enhancement of antagonistic potency relative to C28 (FGFR/KL-complex; fold): two to three-fold

B1: FGF23 A^222: FGF23^25-240, A^222 (protein)
chain: YPNASPLLGSSWGGLIHLYTATARNSYHLQIHKNGHVDGAPHQTIYSALMIRSEDAGFVVITGVMSRRYLCMDFRGNIFGSHYFDPENCRFQHQTLENGYDVYHSPQYHFLVSLGRAKRAFLPGMNPPPYSQFLSRRNEIPLIHFNTPIPRRHTRSAEDDSERDPLNVLKPRARMTPAPASCSQELPSAEDNSPMASAPLGVVRGGRVNTHAGGTG
- FGF23-type agonism / FGFR/KL activation (in words) (FGFR/KL complex): comparable potency to native protein
- EC50 (FGFR/KL complex; Table 3, p-Erk): 0.29 ± 0.12 nM
- kidney Cyp24a1 mRNA expression vs vehicle [1]: significant elevation
- kidney Cyp27b1 mRNA expression vs vehicle [1]: coordinate suppression
- Egr1 induction as compared to native FGF23 ([1]; kidney): reduced
- magnitude of Cyp24a1 effect as compared to native FGF23 ([1]; kidney): fractionally reduced

B2: FGF21: FGF21^29-209 (protein)
chain: HPIPDSSPLLQFGGQVRQRYLYTDDAQQTEAHLEIREDGTVGGAADQSPESLLQLKALKPGVIQILGVKTSRFLCQRPDGALYGSLHFDPEACSFRELLLEDGYNVYQSEAHGLPLHLPGNKSPHRDPAPRGPARFLPLPGLPPALPEPPGILAPQPPDVGSSDPLSMVGPSQGRSPSYAS
- FGF23-type agonism / FGFR/KL activation (in words) (FGFR/KL complex): unable to activate

B3: FGF23^180-251: SAEDD SER-- DPLNV LKPRA RMTPA PAS CSQELP SAEDNSPMASDPLGVVRGGRVNTHAGGT GPEGC RPFAKFI (peptide)
chain: SAEDDSERDPLNVLKPRARMTPAPASCSQELPSAEDNSPMASDPLGVVRGGRVNTHAGGTGPEGCRPFAKFI
- IC50 (FGFR/KL-complex; [3]): 1.2 nM
- enhancement of antagonistic potency relative to C26 (FGFR/KL-complex; fold): seventy
- enhancement of antagonistic potency relative to C28 (FGFR/KL-complex; fold): thirty-fold

— patent US20230382966A1, “NOVEL KLOTHO INTERACTION SITE IN THE C-TERMINUS OF FGF23” (INDIANA UNIVERSITY RESEARCH AND TECHNOLOGY CORPORATION, priority 2020, published 2023)
